# According to US20030040507A1, “Pharmaceutical composition comprising ifosfamide and carnitine” (priority 1997, published 2003):
# Assays:
# [1] = tested on: proximal tubule of the kidneys; assay: comparative investigation of nephrotoxicity in healthy and tumour-bearing rats; type: in vivo
# Source text: In accordance with the set object, comparative investigations were investigated [sic] out with respect to effect on the nephrotoxicity in healthy and tumour-bearing rats after administration of ifosfamide on its own and in combination with L-carnitine. The doses for L-carnitine were selected such that the compound itself causes no side effects at all in the animals.
# tumour-bearing rats = assay: antitumour action of ifosfamide in combination with L-carnitine; type: in vivo; conditions: FIGS. 1 and 2
# rats = conditions: L-carnitine together with ifosfamide; cited from earlier work
Structure (SMILES),"damage to the proximal tubule of the kidneys ([1]; ifosfamide on its own, healthy and tumour-bearing rats (both animal groups))",antitumour action of ifosfamide (tumour-bearing rats),"effect on ifosfamide-induced damage to the proximal tubule of the kidney ([1]; simultaneous administration of L-carnitine 2×100 mg/kg i.v. with ifosfamide, rats)",clinical result (rats)
O=P1(NCCCl)OCCCN1CCCl (stereo not shown) [ifosfamide],clear dose-dependent damage,not affected,–,–
C[N+](C)(C)C[C@H](O)CC(=O)[O-] [L-carnitine],–,–,antagonized significantly,decreased lethargy
